Data as given in patent US20050288369A1, “Novel n-hydroxy thiourea, urea and amide compounds and the pharmaceutical compositions comprising the same” (priority 2002, published 2005).

What was measured:
[1] = biological target: T1, vanilloid receptor-1 (VR1) (Rattus norvegicus, UniProt O35433); experiment: [3H]RTX competition binding assay, VR1-expressing CHO cells; conditions: displacement of bound [3H]RTX; mean±SEM, 3 experiments
T1 construct: expressed in transfected cells; host or cells: Chinese Hamster Ovary cells (CHO, ATCC CCL-61), Tet-off inducible expression
Description: The binding affinity activity of the target compounds for vanilloid receptor-1 was measured by an in vitro receptor binding affinity assay. In the receptor binding assay, the compounds were evaluated for their ability to displace bound [^3H]RTX from the receptor. The results are expressed in terms of Ki values (mean±SEM, 3 experiments) which represent the concentration of the non-radioactive ligand that displaces half of the bound labeled RTX.
The VR receptor binding affinity activity of the inventive compounds was measured by using Chinese Hamster Ovary (CHO, ATCC, No. CCL-61) cell whose cDNA of VR1 (pUHG102 VR1 plasmid) was transfected, which can control the expression of VR1 according to the presence of tetracycline and Tetracycline on/off system (pTet off regulatory plasmid, Clontech. Inc., USA) that the expression of VR1 is induced by removing tetracycline from the medium. […] The cells were cultured after removing tetracycline prior to 48 hours. The tetracycline free culture medium was seeded at the bottom of T75 flask, incubated to the extent that its density reaches at 90%, and washed once with PBS buffer solution. The cells were collected by using saline solution containing 5 mM EDTA and subjected to centrifugation slightly to obtain precipitates, further, which had been kept at the temperature of −20° C. before use.
Experiments were designed to assess inhibition of specific [^3H]RTX binding to membranes by non-radioactive compounds. The binding assay mixture containing [^3H]RTX ([…]), various concentrations of competitive binding substances, 0.25 mg/ml of BSA (Cohn fraction V), 5×10^4 ˜5×10^5 numbers of VR1 and the expression cell, was admixed with saline solution containing 450 μl of Ca^2+ and Mg^2+ and […] of BSA. Non-specific binding assay was measured after mixing 100 nM of non-radioactive RTX thereto. The reaction mixture was treated for 60 min at 37° C. and the reaction was quenched by cooling over ice. RTX bound to the membrane of VR1 was subjected to centrifugation with maximum velocity for 15 minutes to precipitate its membrane residue, which results in separating from non-binding RTX. The tips of tube containing above precipitate was cut off and the amount of bound radioisotope was determined by scintillation counter (LS6500, Beckman-Coulter, USA). The measurement of binding was determined in triplicate in each experiment, and each experiment was repeated at least two times. Binding data were analyzed by fitting to the Hill equation and the Ki (equilibrium binding parameter) index, the Bmax (maximum binding parameter) index, and the cooperativity index etc., were determined by using origin 6.0 program (Origin, MicroCal Co., USA).
An initial compound was dissolved in DMSO (dimethyl sulfoxide) and diluted with saline solution containing Ca^2+ and […], and […] of BSA.

VR1 [2] = biological target: T2, VR1 (Rattus norvegicus, UniProt O35433); experiment: 45Ca influx test in CHO cells expressing VR1, antagonistic activity against 50 nM capsaicin; type: cell-based; conditions: 45Ca uptake stimulated with 50 nM capsaicin
T2 construct: expressed in transfected cells; host or cells: Chinese Hamster Ovary cells (CHO, ATCC CCL-61), Tet-off inducible expression
Description: (§1) The ^45Ca Influx test by using CHO cells of the inventive compounds was measured by using Chinese Hamster Ovary (CHO, ATCC, No. CCL-61) cell whose cDNA of VR1 (pUHG102 VR1 plasmid) was transfected, which can control the expression of VR1 according to the presence of tetracycline and Tetracycline on/off system (pTet off regulatory plasmid, Clontech. Inc., USA) that the expression of VR1 is induced by removing tetracycline from the medium.
(§2) The CHO cells were poured onto 24 well plates to the extent that its density reaches at 30% and incubated for 24 hours at 37° C. The culture medium was exchanged to tetracycline free medium to induce the expression of VR1 and tested after 36 hours.
(§3) Together with 0.25 mg/ml BSA (Sigma A2153, USA), 1 Ci/ml ^45Ca(5-30 Ci/g used, ICN. Co., 62005 RT, U.S.A.), the test samples with increasing concentrations were added to each well. At the quenching moment of the incubation with ^45Ca, the cultured cells were removed from the medium, washed three times with cool PBS buffer solution containing 1.8 mM CaCl2 and 400 μl of RIPA buffer solution (50 mM Tris pH 7.4; 150 mM sodium chloride; 0.1% SDS; 1% sodium deoxycholate), was added in each well to homogenize the cells. The plates were stirred for 20 minutes slowly and 300 μl of cell lysate was transferred to scintillation vials from each wells. The radioactivity was determined by scintillation counter.
(§4) The data were assessed by determining four wells per each data point in each experiment and analyzed in computer by being transformed into Hill equation. The experiments were determined in triplicate in each sample comprising inventive compounds and control groups.
In order to determine the antagonistic activity, ^45Ca^2+-uptake stimulating-mixture was added with 50 nM capsaicin and the antagonistic activity was determined by the method for the agonistic activity. In case that 10 μM a certain compound cannot change the capsaicin-inducing activity, the compound shall be regarded as an […].

VR1 [3] = biological target: T2, VR1; experiment: 45Ca influx test in CHO cells expressing VR1, agonistic activity; type: cell-based; conditions: 45Ca uptake
Description: The ^45Ca Influx test by using CHO cells expressing VR1 was performed by the procedure described in the literature (Lee, J. W., Bioorganic & Medicinal Chemistry, pp 1713-1720, 2001).
as §1, §2
as §3, with “In radioactive ^45Ca uptake experiment, The cells were incubated in […] of DMEM medium (Dulbecco's modified Eagles medium: Gibco-BRL, 31600-083) containing free of serum and 1.8 mM CaCl2 for 10 minutes at 37*C. Together” for “Together”
as §4

Male ICR mice = experiment: Acetic acid-induced writhing test; type: in vivo; conditions: Mus musculus, ip; i.p. 30 mins before 1.2% acetic acid i.p.; 50% reduction of the number of writhes
Description: The acetic acid-induced writhing test for testing the analgesic activity of inventive compounds prepared from above Examples was performed by the procedure described in the literature (Lee, J. W., Bioorganic & Medicinal Chemistry, pp 1713-1720, 2001).
Male ICR mice having its mean body weight of 25 g (CD-1; Biogenomics Co. Korea) were reared in lighting controlled environment (12 hrs on/12 hrs off) maintaining with temperatures at 22±2° C. and humidity at 50±5% and allowed to eat a diet and to drink tap water ad lib.
Mice were fasted overnight prior to testing and adopted to the environment.
0.3 ml of acetic acid solution (1.2%) was administrated in the mice intraperitoneally and then the mice were put into the transparent acryl box (15×15×15 cm). 5 minutes later, the number of abdominal constrictions was counted for 20 minutes. Each group consisting of ten mice was pretreated with test compounds or solvent (0.2 ml, i.p.) 30 mins before the injection of acetic acid. Test compounds were dissolved in the mixture of ethanol/Tween-80/saline ([…]) or cremophor EL/DMSO/d-water ([…]).
Analgesic activity of each drug was determined at several different concentrations.
The index of analgesic activity (eff) was defined as below Empirical formula 1. Analgesic activity (eff)=100−{(No. of abdominal constriction of test group/No. of abdominal constriction of control group)×100} [Empirical formula 1]
Analgesic activity was expressed as the reduction in the number of abdominal constrictions, of control animals (vehicle-pretreated mice) and animals pretreated with test compounds.

T1 sequence (O35433 whole entry): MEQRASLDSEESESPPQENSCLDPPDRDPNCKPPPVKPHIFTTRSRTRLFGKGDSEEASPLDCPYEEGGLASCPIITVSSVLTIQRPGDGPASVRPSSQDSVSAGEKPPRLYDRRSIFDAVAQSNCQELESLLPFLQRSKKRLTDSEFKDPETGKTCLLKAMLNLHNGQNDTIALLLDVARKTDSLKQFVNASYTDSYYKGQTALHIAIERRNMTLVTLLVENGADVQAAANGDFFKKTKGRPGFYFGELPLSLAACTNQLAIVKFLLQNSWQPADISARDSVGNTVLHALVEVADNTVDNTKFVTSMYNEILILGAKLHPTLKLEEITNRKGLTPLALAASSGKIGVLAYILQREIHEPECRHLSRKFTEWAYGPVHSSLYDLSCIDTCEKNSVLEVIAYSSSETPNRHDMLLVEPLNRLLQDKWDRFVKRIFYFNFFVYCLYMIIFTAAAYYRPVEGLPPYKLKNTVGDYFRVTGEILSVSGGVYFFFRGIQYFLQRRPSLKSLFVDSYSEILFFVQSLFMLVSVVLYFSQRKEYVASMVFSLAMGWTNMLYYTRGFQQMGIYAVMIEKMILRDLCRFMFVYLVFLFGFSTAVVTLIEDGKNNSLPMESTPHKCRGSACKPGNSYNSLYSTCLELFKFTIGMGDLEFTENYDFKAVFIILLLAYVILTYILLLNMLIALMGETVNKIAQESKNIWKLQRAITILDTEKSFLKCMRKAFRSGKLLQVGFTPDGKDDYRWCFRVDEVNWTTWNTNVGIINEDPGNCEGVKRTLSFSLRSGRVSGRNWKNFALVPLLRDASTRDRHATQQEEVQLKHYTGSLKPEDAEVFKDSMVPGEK
T2 sequence (O35433 whole entry): as above

| SMILES | Ki [1] [nM] | ED50 (Male ICR mice) [µg/kg] | further results |
| --- | --- | --- | --- |
| Oc1cc2c(cc1O)CN(C(=S)NCCc1ccc(Cl)cc1)CCC2 [Capsazepine, reference compound] | 1350 |  | IC50 (VR1 [2]): 520 nM |
| CC(C)(C)c1ccc(CN(O)C(=S)NCc2ccc(NS(C)(=O)=O)c(Cl)c2)cc1 [Compound 31, N-(4-tert-butylbenzyl)-N-hydroxy-N-[3-chloro-4-(methylsulfonylamino)benzyl]thiourea] | 1310 |  | IC50 (VR1 [2]): 579 nM |
| CC(C)(C)c1ccc(CN(O)C(=S)NCc2ccc(NS(C)(=O)=O)c([N+](=O)[O-])c2)cc1 [Compound 32, N-(4-tert-butylbenzyl)-N-hydroxy-N-[4-(methylsulfonylamino)-3-nitrobenzyl]thiourea] |  |  | IC50 (VR1 [2]): 635 nM |
| CC(C)(C)c1ccc(CN(O)C(=S)NCc2ccc(NS(C)(=O)=O)cc2F)cc1 [Compound 33, N-(4-tert-butylbenzyl)-N-hydroxy-N-[2-fluoro-4-(methylsulfonylamino)benzyl]thiourea] | 1920 |  | EC50 (VR1 [3]): 12300 nM |
| CC(C)(C)c1ccc(CN(O)C(=S)NCc2ccc(NS(C)(=O)=O)cc2Cl)cc1 [Compound 34, N-(4-tert-butylbenzyl)-N-hydroxy-N-[2-chloro-4-(methylsulfonylamino)benzyl]thiourea] | 2270 |  |  |
| COc1cc(CNC(=S)N(O)CC(COC(=O)C(C)(C)C)Cc2ccc(C)c(C)c2)ccc1NS(C)(=O)=O (stereo not drawn) [Compound 36, N-[2-(3,4-dimethylbenzyl)-3-(pivaloyloxy)propyl]-N-hydroxy-N-[3-methoxy-4-(methylsulfonylamino)benzyl]thiourea] | 396 |  | EC50 (VR1 [3]): 809 nM |
| Cc1ccc(CC(COC(=O)C(C)(C)C)CN(O)C(=S)NCc2ccc(NS(C)(=O)=O)cc2F)cc1C (stereo not drawn) [Compound 38, N-[2-(3,4-dimethylbenzyl)-3-(pivaloyloxy)propyl]-N-hydroxy-N-[2-fluoro-4-(methylsulfonylamino)benzyl]thiourea] |  |  | EC50 (VR1 [3]): 1350 nM |
| Cc1ccc(CC(COC(=O)C(C)(C)C)CN(O)C(=S)NCc2ccc(NS(C)(=O)=O)cc2Cl)cc1C (stereo not drawn) [Compound 39, N-[2-(3,4-dimethylbenzyl)-3-(pivaloyloxy)propyl]-N-hydroxy-N-[2-chloro-4-(methylsulfonylamino)benzyl]thiourea] | 221 |  | IC50 (VR1 [2]): 757 nM |
| CC(C)(C)C(=O)OCC(Cc1ccc(C(C)(C)C)cc1)CN(O)C(=S)NCc1ccc(NS(C)(=O)=O)cc1 (stereo not drawn) [Compound 40, N-[2-(4-tert-butylbenzyl)-3-(pivaloyloxy)propyl]-N-hydroxy-N-[4-(methylsulfonylamino)benzyl]thiourea] | 536 |  | EC50 (nM) (VR1/CHO) (VR1 [3]): weak |
| CC(C)(C)c1ccc(CC(=O)N(O)Cc2ccc(NS(C)(=O)=O)cc2)cc1 [Compound 63, N-hydroxy-N-[4-(methylsulfonylamino)benzyl]-2-(4-tert-butylphenyl)acetamide] | 5310 |  | EC50 (VR1 [3]): 1960 nM |
| Cc1ccc(CC(CNC(=S)N(O)Cc2ccc(NS(C)(=O)=O)c(F)c2)COC(=O)C(C)(C)C)cc1C (stereo not drawn) [Compound 64, N-[2-(3,4-dimethylbenzyl)-3-(pivaloyloxy)propyl]-N-hydroxy-N-[3-fluoro-4-(methylsulfonylamino)benzyl]thiourea] | 546 |  | EC50 (nM) (VR1/CHO) (VR1 [3]): Weak |
| Cc1ccc(CC(CNC(=S)NCc2ccc(NS(C)(=O)=O)cc2)COC(=O)C(C)(C)C)cc1C (stereo not drawn) [JYL-827, reference compound] |  | 2.62 |  |
| Cc1ccc(CC(CNC(=S)NCc2ccc(NS(C)(=O)=O)c(F)c2)COC(=O)C(C)(C)C)cc1C (stereo not drawn) [JYL-1433, reference compound] |  | 7.43 |  |
| CC(C)(C)c1ccc(CNC(=S)NCc2ccc(NS(C)(=O)=O)cc2)cc1 [KJM-429, reference compound] |  | 1410 |  |
| O=C(c1ccccc1)c1ccc2n1CCC2C(=O)O (stereo not drawn) [Ketorolac, reference compound] |  | 2820 |  |
| CC(C)(C)c1ccc(CNC(=S)NCc2ccc(NS(C)(=O)=O)c(F)c2)cc1 [SC-0030, reference compound] |  | 1.26 |  |
